Reference: patent US20220305012A1, “L[…] TREATING SLEEP ISSUES” (EISAI R&D MANAGEMENT CO., LTD., priority 2019, published 2022)

What was measured:
Format in all cases: in vivo, human
[1] = test system: Subjects Having Insomnia Disorder; experiment: Example 2: minutes asleep in sleep stages (N1, N2, N3, REM, non-REM); settings: both doses (FIG. 15)
Protocol: FIG. 13A, FIG. 13B, and FIG. 13C show the change from baseline (least squares mean) in the minutes asleep during Stage N1, Stage N2, and Stage N3 sleep, respectively, at Nights 1/2 and Nights 29/30 in patients treated with placebo, 6.25 mg of zolpidem, 5 mg of lemborexant, or 10 mg of lemborexant.

[2] = Example 2: plasma concentrations of lemborexant and metabolites
Protocol: Within 5 minutes of the subject's mean habitual bedtime, study drug was administered and an overnight polysomnogram recording was initiated. At completion of the recording the following morning (Day 2), postural stability and cognitive performance were assessed. On the Day 2 evening, subjects returned to the clinic and a blood sample was collected before administering study drug, and then study drug was administered within 5 minutes of the subject's mean habitual bedtime. Again, a polysomnogram recording was initiated. The next morning (Day 3), postural stability and cognitive performance were assessed. A blood sample was also collected.
On the evening of Day 30, subjects returned to the clinic. A pre-dose blood sample was collected and study drug was again administered within 5 minutes of the subject's mean habitual bedtime. A polysomnogram recording was initiated. The following morning (Day 31), postural stability and cognitive performance were assessed and a blood sample was obtained. The ISI, FSS, EQ-5D-3L and PGI-Insomnia were administered. Blood and urine samples were collected for routine safety assessment. An electrocardiogram was performed, and vital signs and weight were assessed. The eC-SSRS was then administered to the subject. At 1.5 hours after waketime, subjects rated their morning sleepiness level.

[3] = test system: Subjects Having Insomnia Disorder; experiment: Example 1: subjective sleep efficiency (sSE), Sleep Diary
Source text: As used herein, the term “subjective sleep efficiency”, abbreviated as “sSE”, means the proportion of sTST per subjective time spent in bed, calculated as the interval from the time the subject reports attempting to sleep until the time the subject stopped trying to sleep for the night (operationalized as the time the subject got out of bed for the day), and time spent asleep derived from subjective time spent in bed minus sWASO. As used herein, an “improvement of sleep efficiency in Subjective Sleep Efficiency (sSE)” means an increase in sleep efficiency in Subjective Sleep Efficiency (sSE).
In some embodiments, sleep diaries were used to assess sleep parameters reported by subjects (i.e., subjective assessments) including subjective sleep onset latency (sSOL), subjective sleep efficiency (sSE), subjective WASO (sWASO), and subjective total sleep time (sTST). Subjects were instructed to complete the Sleep Diary developed based on the consensus Sleep Diary as described in Carney et al., “The consensus sleep diary: standardizing prospective sleep self-monitoring,” Sleep 2012; 35(2):287-302. In some embodiments, the Sleep Diary was used to assess the subject's global perception of quality of sleep on the previous night with the following question: “How would you rate the quality of your sleep last night?” Subjects rated the quality of their sleep on a scale from 1 to 9, with 1 being extremely poor and 9 being extremely good. In some embodiments, the Sleep Diary was used to assess subjective ratings of morning sleepiness with the following question: “How alert/sleepy do you feel this morning?” Subjects rated their sleepiness/alertness level on a Likert scale from 1 to 9, with 1 being extremely sleepy and 9 being extremely alert.
sSE—subjective sleep efficiency: proportion of sTST per subjective time spent in bed, calculated as the interval from the time the subject reports attempting to sleep until the time the subject stopped trying to sleep for the night (operationalized as the time the subject got out of bed for the day), and time spent asleep derived from subjective time in bed minus sWASO.
Subjects were randomized in a double-blind manner and received either placebo, 5 mg of lemborexant, or 10 mg of lemborexant (approximately 1:1:1 randomization). All subjects underwent routine safety monitoring through the study, including assessments of treatment-emergent adverse events, 12-lead electrocardiograms, vital signs, weight, and clinical hematology and blood chemistry labs. Suicidality was assessed using the eC-SSRS.
Treatment period 1 began with the first dose of randomized study medication (placebo, 5 mg of lemborexant, or 10 mg of lemborexant). Subjects completed sleep diaries daily in the morning, within one hour of waketime. The subjects were assessed by a clinician one month, two months, three months, and six months after initiation of Treatment period 1. The following assessments were conducted:
This study had two key secondary endpoints. The first key secondary endpoint was the mean change from study baseline in subjective sleep efficiency at month 6. The second key secondary endpoint was the mean change from study baseline of subjective wake after sleep onset at month 6.

[4] = Lemborexant 5 mg dose, Day 2 Post-Dose
[5] = Lemborexant 5 mg dose, Day 2 Pre-Dose
[6] = Lemborexant 5 mg dose, Day 29 Post-Dose
[7] = Lemborexant 5 mg dose, Day 29 Pre-Dose
[8] = Lemborexant 10 mg dose, Day 2 Post-Dose
[9] = Lemborexant 10 mg dose, Day 2 Pre-Dose
[10] = Lemborexant 10 mg dose, Day 29 Post-Dose
[11] = Lemborexant 10 mg dose, Day 29 Pre-Dose

## Cc1ncc(OC[C@@]2(c3cccc(F)c3)C[C@H]2C(=O)Nc2ccc(F)cn2)c(C)n1 [Lemborexant, (1R,2S)-2-(((2,4-dimethylpyrimidin-5-yl)oxy)methyl)-2-(3-fluorophenyl)-N-(5-fluoropyridin-2-yl)cyclopropanecarboxamide]
[1]
  non-REM sleep: greater increase in non-REM sleep compared to treatment with placebo and zolpidem ER
[2]; [4]
  Plasma Concentrations, BLQ (<0.0500 ng/mL), n (%): 6 (2.3) n (%)
  Plasma Concentrations, Mean (SD): 5.3 (2.55) ng/mL
  Plasma Concentrations, Median: 5.0 ng/mL
[2]; [5]
  Plasma Concentrations, BLQ (<0.0500 ng/mL), n (%): 10 (3.9) n (%)
  Plasma Concentrations, Mean (SD): 2.1 (1.48) ng/mL
  Plasma Concentrations, Median: 1.8 ng/mL
[2]; [6]
  Plasma Concentrations, BLQ (<0.0500 ng/mL), n (%): 6 (2.4) n (%)
  Plasma Concentrations, Mean (SD): 10.7 (6.66) ng/mL
  Plasma Concentrations, Median: 9.1 ng/mL
[2]; [7]
  Plasma Concentrations, BLQ (<0.0500 ng/mL), n (%): 8 (3.1) n (%)
  Plasma Concentrations, Mean (SD): 7.3 (5.60) ng/mL
  Plasma Concentrations, Median: 6.1 ng/mL
[2]; [8]
  Plasma Concentrations, BLQ (<0.0500 ng/mL), n (%): 5 n (%)
  Plasma Concentrations, Mean (SD): 11.5 ng/mL
  Plasma Concentrations, Median: 10.4 ng/mL
[2]; [9]
  Plasma Concentrations, BLQ (<0.0500 ng/mL), n (%): 15 n (%)
  Plasma Concentrations, Mean (SD): 4.4 ng/mL
  Plasma Concentrations, Median: 3.7 ng/mL
[2]; [10]
  Plasma Concentrations, BLQ (<0.0500 ng/mL), n (%): 6 n (%)
  Plasma Concentrations, Mean (SD): 21.1 ng/mL
  Plasma Concentrations, Median: 19.6 ng/mL
[2]; [11]
  Plasma Concentrations, BLQ (<0.0500 ng/mL), n (%): 6 n (%)
  Plasma Concentrations, Mean (SD): 15.1 ng/mL
  Plasma Concentrations, Median: 13.7 ng/mL
[3]; 5 mg and 10 mg, at the equivalent timepoint (Table 3)
  subjective sleep efficiency compared with placebo: greater increase in subjective sleep efficiency than subjects treated with placebo
[3]; 5 mg, First 7 Nights
  sSE, Mean: 69.97%
  sSE, Median: 74.62%
[3]; 5 mg, Month 1
  sSE, Mean: 71.56%
  sSE, Median: 76.35%
[3]; 5 mg, Month 3
  sSE, Mean: 77.29%
  sSE, Median: 81.32%
[3]; 5 mg, Month 6
  sSE, Mean: 78.55%
  sSE, Median: 82.02%
[3]; 5 mg, Study Baseline
  sSE, Mean: 63.14%
  sSE, Median: 67.00%
[3]; 5 mg, after 1 Month
  sSE Change from Study Baseline, Mean: 7.87%
  sSE Change from Study Baseline, Median: 6.75%
[3]; 5 mg, after 3 Months
  sSE Change from Study Baseline, Mean: 13.03%
  sSE Change from Study Baseline, Median: 11.63%
[3]; 5 mg, after 6 Months
  sSE Change from Study Baseline, Mean: 15.34%
  sSE Change from Study Baseline, Median: 13.33%
[3]; 5 mg, after 7 Nights
  sSE Change from Study Baseline, Mean: 6.61%
  sSE Change from Study Baseline, Median: 5.45%
[3]; 5 mg, change from Study Baseline after 1 Month
  sSE LSM treatment difference: Lemborexant-Placebo: 2.227%
[3]; 5 mg, change from Study Baseline after 3 Months
  sSE LSM treatment difference: Lemborexant-Placebo: 4.222%
[3]; 5 mg, change from Study Baseline after 6 Months
  sSE LSM treatment difference: Lemborexant-Placebo: 4.549%
[3]; 5 mg, change from Study Baseline after 7 Nights
  sSE LSM treatment difference: Lemborexant-Placebo: 4.299%
[3]; 10 mg, First 7 Nights
  sSE, Mean: 69.96%
  sSE, Median: 71.85%
[3]; 10 mg, Month 1
  sSE, Mean: 71.04%
  sSE, Median: 74.70%
[3]; 10 mg, Month 3
  sSE, Mean: 75.15%
  sSE, Median: 78.30%
[3]; 10 mg, Month 6
  sSE, Mean: 76.53%
  sSE, Median: 80.22%
[3]; 10 mg, Study Baseline
  sSE, Mean: 62.03%
  sSE, Median: 65.05%
[3]; 10 mg, after 1 Month
  sSE Change from Study Baseline, Mean: 9.92%
  sSE Change from Study Baseline, Median: 9.00%
[3]; 10 mg, after 3 Months
  sSE Change from Study Baseline, Mean: 13.61%
  sSE Change from Study Baseline, Median: 12.62%
[3]; 10 mg, after 6 Months
  sSE Change from Study Baseline, Mean: 15.55%
  sSE Change from Study Baseline, Median: 13.91%
[3]; 10 mg, after 7 Nights
  sSE Change from Study Baseline, Mean: 8.27%
  sSE Change from Study Baseline, Median: 7.17%
[3]; 10 mg, change from Study Baseline after 1 Month
  sSE LSM treatment difference: Lemborexant-Placebo: 3.615%
[3]; 10 mg, change from Study Baseline after 3 Months
  sSE LSM treatment difference: Lemborexant-Placebo: 4.361%
[3]; 10 mg, change from Study Baseline after 6 Months
  sSE LSM treatment difference: Lemborexant-Placebo: 4.667%
[3]; 10 mg, change from Study Baseline after 7 Nights
  sSE LSM treatment difference: Lemborexant-Placebo: 5.793%
